Reference: paper PMC10115881, “Disrupting the α-synuclein-ESCRT interaction with a peptide inhibitor mitigates neurodegeneration in preclinical models of Parkinson’s disease” (Nature Communications, 2023)

Assays:
Assay type in all cases: cell-based, human
[1] = test system: a-syn oligomers in iPSC-derived dopaminergic neurons; assay: a-syn oligomer (Syn-O2) fluorescence in iPSC-derived dopaminergic neurons; settings: A53T a-syn iPSC-derived dopaminergic neurons
Text: Further, we used an antibody that has a high binding affinity for oligomeric a-syn and recognizes early soluble oligomers and late fibrils of a-syn (Syn-O2)[54]. This antibody detects these a-syn conformations in cerebrospinal fluid[55] and brain tissue[54] from PD patients. Levels of these a-syn conformations were increased in A53T a-syn neurons (Fig. 6G, H). Further, LAMP1 levels were reduced in A53T a-syn neurons (Fig. 6D, F).
A53T a-syn iCell Dopa neurons (catalog #R1109) and isogenic control iCell Dopa neurons (catalog #R1088) were purchased from Fujifilm Cellular Dynamics (Madison, WI, USA) and cultured as per the manufacturer’s instructions. […]
(§1) Confocal images of immunofluorescent staining were acquired with a Zeiss LSM880 confocal microscope equipped with 405, 488, 555, and 639 nm laser lines. All images were taken within the linear range at constant gain and pinhole settings at optimal resolution settings determined by the software. […]
(§2) Confocal images of primary cortical neurons, iPSC-derived dopaminergic neurons, and LAMP1 staining within the SN were processed using Imaris software (Oxford instruments). […] Mean pixel intensity per GFP^+ cell (for experiments using GFP-tagged peptides) or RFP^+ cell (for experiments using RFP-tagged peptides) was calculated for a-syn or LAMP1 signal using the software’s surfaces module. […]

[2] = test system: a-syn in iPSC-derived dopaminergic neurons; assay: a-syn fluorescence in iPSC-derived dopaminergic neurons; settings: A53T a-syn iPSC-derived dopaminergic neurons
Experimental: A53T a-syn iCell Dopa neurons (catalog #R1109) and isogenic control iCell Dopa neurons (catalog #R1088) were purchased from Fujifilm Cellular Dynamics (Madison, WI, USA) and cultured as per the manufacturer’s instructions. Briefly, cells were plated in complete maintenance medium provided by the manufacturer on poly-L-ornithine/laminin coated μ plates (ibidi). Cells recovered from thawing for 24 h and then were transduced with AAV-Scramble1.3-RFP or AAV-PDpep1.3-RFP at MOI of 3000 for 48 h at which time media was completely changed. Cells were fixed using 4% PFA at 7 days post-plating.
as §1, §2

A53T a-syn oligomers = assay: Split-YFP PCA/FACS screen of A53T a-syn oligomers
Text: We used a lentiviral library of 50,549 7-mer peptides enriched in PPI motifs[13] on a green fluorescent protein (GFP) scaffold (Fig. 1A). We infected cells in a pooled format and the amino acid sequence of each peptide served as its own barcode. By using a low multiplicity of infection followed by puromycin selection, each infected cell expressed one unique GFP-peptide. We screened for peptides that reduced a-syn-mediated cytotoxicity or a-syn oligomers in parallel (Fig. 1A). To cause cytotoxicity relevant to PD, we induced proteostatic stress in HEK293 cells by inhibiting the proteasome with MG132 and overexpressing human WT a-syn associated with idiopathic PD in one screen or the more toxic mutant A53T a-syn associated with familial PD in a second screen. This combination of a-syn overexpression and pharmacological proteasome inhibition led to death of most cells, with only those that expressed a protective peptide surviving. By extracting genomic DNA from the surviving cells and amplifying the peptide coding sequences, we identified the protective peptides (Fig. 1A). To detect a-syn oligomers, we used a protein fragment complementation assay (PCA) of a-syn oligomerization in HEK293 cells. In this assay, human A53T a-syn was fused to either the C- or N-terminal half of yellow fluorescent protein (YFP). No fluorescence is detectable while a-syn exists in monomers but, when a-syn oligomerizes, the two halves of YFP come in close enough proximity to form a functional, spontaneously fluorescent protein. […] Our screens yielded 10 hits (Table S1). The hit with the most reads (i.e., the most abundant) was the same peptide in all screens: IPIQLKA (named PDpep1) (Table S1). We validated the cytoprotective effects of PDpep1 in HEK293 cells overexpressing WT or A53T a-syn (Figs. 1B, S1A), as well as its ability to reduce WT or A53T a-syn oligomers in a luciferase-based PCA[18]–[20] compared to a scrambled control peptide (Figs. 1C, S1B).
HEK293T cells (ATCC, CRL-3216) were maintained in DMEM supplemented with 10% FBS and 1% pen/strep/glutamine, and the appropriate selection antibiotics when required. Lentiviruses were made in a 15 cm dish format by transfecting packaging cells (HEK293T) with a three-plasmid system (expression vector, psPAX2 and pMD2.G) and using Polyjet DNA transfection reagent (FroggaBio, SL100688.1). Viral transduction of HEK293T cells were performed with a multiplicity of infection (MOI) of 0.3. Infected cells were selected in puromycin-containing medium to eliminate uninfected cells and three aliquots of cells were collected for sampling of the initial (T0) cell population. Cells were treated with MG132 at concentrations of 0, 10, 25, or 50 µM. For the cell viability screen, surviving cells were collected and gDNA was extracted for identification of peptide inhibitors of cell toxicity. For the inhibition of a-syn aggregation screen, a protein fragment complementation assay (PCA) was used by transfecting cells with split YFP-a-syn constructs following stable expression of the peptides. Cells were sorted based on their YFP fluorescence intensities with a FACSVantage SE cell sorter (BD Bioscience) and gDNA was extracted for identification of peptides.
Cells were harvested by trypsin treatment and centrifuged at 500 × g for 5 min. The pellet was resuspended in ice-cold PBS and centrifuged again. The pellet was then resuspended at a concentration of 4 × 10^6 cells/ml in the sorting buffer, which is PBS containing 100 Kunitz DNase I/ml, 10 μg/ml propidium iodide (Sigma), and 2% FBS. The cells were then sent through a 40 μm filter to remove large clumps and loaded into either a FACScan Flow Cytometer (BD Bioscience) for cell analysis or a FACSVantage SE cell sorter (BD Bioscience) for cell sorting. The cells with positive propidium iodide staining (i.e., dead cells) were first eliminated from the analysis. […]

Substance	Effect on oligomeric a-syn, iPSC neurons [1]	Effect on a-syn levels, iPSC neurons [2]	Reads GFP High (A53T a-syn oligomers)	Reads GFP Inter (A53T a-syn oligomers)	Reads GFP Neg (A53T a-syn oligomers)	Reads Ratio (A53T a-syn oligomers)
DEEIERQLKALG [PDpep1.3]	returned levels of a-syn, including oligomeric a-syn, as well as LAMP1 levels to those of isogenic controls	returned levels of a-syn, including oligomeric a-syn, as well as LAMP1 levels to those of isogenic controls	–	–	–	–
IPIQLKA [PDpep1, initial screen hit peptide IPIQLKA]	–	–	12	2853	15556	1,218.98
